Reference: ChEMBL document CHEMBL5291721, “A preclinical secondary pharmacology resource illuminates target-adverse drug reaction associations of marketed drugs” (Nat Commun, 2023)

Experiments:
[1] = biological target: Sodium-dependent noradrenaline transporter (Homo sapiens, UniProt P23975)
[2] = biological target: T1, Muscarinic acetylcholine receptor M2 (Homo sapiens, UniProt P08172); format: functional, cell-based
T1 sequence (P08172 whole entry): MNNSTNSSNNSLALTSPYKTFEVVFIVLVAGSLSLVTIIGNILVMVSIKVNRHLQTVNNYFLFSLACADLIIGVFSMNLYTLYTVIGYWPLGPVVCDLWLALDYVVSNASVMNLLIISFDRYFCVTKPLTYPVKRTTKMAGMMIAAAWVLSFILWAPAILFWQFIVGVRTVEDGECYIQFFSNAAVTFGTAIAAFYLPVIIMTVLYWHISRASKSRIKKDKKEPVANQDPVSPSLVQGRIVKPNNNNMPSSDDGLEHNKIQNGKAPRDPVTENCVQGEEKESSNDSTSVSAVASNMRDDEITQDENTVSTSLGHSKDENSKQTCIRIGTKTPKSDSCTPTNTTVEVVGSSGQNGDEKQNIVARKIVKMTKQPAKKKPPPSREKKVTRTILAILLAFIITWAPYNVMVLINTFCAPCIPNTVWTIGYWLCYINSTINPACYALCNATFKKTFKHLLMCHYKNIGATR

D(3) dopamine receptor = D(3) dopamine receptor (Homo sapiens, UniProt P35462)
[3] = biological target: Kappa-type opioid receptor (Homo sapiens, UniProt P41145)
[4] = biological target: Glutamate receptor ionotropic, NMDA 1 (Rattus norvegicus, UniProt P35439)
[5] = biological target: T2, Alpha-2B adrenergic receptor (Homo sapiens, UniProt P18089)
T2 sequence (P18089 whole entry): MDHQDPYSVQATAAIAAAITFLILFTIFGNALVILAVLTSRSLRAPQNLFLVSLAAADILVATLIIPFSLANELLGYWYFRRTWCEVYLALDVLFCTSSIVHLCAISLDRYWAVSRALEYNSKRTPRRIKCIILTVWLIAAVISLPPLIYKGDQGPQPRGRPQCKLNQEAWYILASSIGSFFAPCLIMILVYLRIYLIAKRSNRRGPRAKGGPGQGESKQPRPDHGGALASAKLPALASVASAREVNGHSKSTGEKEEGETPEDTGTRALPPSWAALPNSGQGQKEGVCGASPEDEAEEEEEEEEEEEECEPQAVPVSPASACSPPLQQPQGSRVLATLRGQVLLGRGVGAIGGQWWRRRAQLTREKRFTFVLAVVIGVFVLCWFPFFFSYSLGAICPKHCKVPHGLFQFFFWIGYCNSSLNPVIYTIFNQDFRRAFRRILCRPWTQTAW

[6] = biological target: T3, 5-hydroxytryptamine receptor 1A (Homo sapiens, UniProt P08908); format: functional, cell-based
T3 sequence (P08908 whole entry): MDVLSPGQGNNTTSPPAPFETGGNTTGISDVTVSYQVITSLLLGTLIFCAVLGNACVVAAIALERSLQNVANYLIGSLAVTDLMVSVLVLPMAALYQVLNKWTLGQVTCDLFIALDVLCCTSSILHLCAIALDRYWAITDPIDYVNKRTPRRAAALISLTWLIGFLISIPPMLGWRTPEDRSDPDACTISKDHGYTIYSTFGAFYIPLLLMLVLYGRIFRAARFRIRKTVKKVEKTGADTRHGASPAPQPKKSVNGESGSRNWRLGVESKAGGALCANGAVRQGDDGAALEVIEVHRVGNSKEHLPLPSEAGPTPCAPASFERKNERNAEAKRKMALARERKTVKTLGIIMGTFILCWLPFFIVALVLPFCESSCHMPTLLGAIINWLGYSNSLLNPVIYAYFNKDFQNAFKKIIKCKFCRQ

[7] = biological target: T4, Muscarinic acetylcholine receptor M1 (Homo sapiens, UniProt P11229); format: functional, cell-based
T4 sequence (P11229 whole entry): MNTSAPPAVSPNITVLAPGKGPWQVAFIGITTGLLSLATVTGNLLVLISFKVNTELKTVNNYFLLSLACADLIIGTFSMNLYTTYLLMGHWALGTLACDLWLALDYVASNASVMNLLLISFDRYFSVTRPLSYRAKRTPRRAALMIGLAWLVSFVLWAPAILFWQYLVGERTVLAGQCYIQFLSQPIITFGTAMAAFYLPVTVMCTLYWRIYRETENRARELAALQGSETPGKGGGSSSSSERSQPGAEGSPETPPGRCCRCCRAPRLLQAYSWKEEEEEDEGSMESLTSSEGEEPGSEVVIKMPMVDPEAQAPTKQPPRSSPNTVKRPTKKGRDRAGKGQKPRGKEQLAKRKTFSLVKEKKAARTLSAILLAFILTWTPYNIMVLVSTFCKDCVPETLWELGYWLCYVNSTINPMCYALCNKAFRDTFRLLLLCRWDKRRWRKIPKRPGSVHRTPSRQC
Also: assay procedure not described here.

Sequence of Sodium-dependent noradrenaline transporter (P23975 whole entry): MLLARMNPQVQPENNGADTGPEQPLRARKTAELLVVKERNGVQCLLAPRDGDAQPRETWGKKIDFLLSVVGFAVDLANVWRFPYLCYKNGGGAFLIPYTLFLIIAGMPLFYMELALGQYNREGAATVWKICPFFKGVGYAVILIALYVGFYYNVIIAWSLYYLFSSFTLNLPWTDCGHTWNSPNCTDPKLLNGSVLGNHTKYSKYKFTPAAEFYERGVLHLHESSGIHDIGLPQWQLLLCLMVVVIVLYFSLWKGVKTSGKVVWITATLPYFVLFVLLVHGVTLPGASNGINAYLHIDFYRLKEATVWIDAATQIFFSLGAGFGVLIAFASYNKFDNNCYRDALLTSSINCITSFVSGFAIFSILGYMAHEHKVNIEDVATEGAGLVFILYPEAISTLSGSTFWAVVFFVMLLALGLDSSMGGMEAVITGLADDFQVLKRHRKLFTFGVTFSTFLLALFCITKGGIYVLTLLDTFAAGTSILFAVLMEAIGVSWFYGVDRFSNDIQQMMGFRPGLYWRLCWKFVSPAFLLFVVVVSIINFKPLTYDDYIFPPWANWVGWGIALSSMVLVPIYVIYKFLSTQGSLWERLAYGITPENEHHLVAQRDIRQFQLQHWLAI
Sequence of Kappa-type opioid receptor (P41145 whole entry): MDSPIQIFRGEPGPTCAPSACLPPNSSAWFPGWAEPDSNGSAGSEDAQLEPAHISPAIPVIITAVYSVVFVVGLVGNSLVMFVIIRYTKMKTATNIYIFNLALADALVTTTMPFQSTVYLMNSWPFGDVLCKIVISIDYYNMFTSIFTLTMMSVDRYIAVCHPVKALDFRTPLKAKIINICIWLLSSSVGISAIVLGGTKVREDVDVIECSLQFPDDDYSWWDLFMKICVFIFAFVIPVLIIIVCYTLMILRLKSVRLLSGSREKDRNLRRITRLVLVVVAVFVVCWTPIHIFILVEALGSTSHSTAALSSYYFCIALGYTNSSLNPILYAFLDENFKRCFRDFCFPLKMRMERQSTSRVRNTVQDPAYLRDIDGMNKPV
Sequence of D(3) dopamine receptor (P35462 whole entry): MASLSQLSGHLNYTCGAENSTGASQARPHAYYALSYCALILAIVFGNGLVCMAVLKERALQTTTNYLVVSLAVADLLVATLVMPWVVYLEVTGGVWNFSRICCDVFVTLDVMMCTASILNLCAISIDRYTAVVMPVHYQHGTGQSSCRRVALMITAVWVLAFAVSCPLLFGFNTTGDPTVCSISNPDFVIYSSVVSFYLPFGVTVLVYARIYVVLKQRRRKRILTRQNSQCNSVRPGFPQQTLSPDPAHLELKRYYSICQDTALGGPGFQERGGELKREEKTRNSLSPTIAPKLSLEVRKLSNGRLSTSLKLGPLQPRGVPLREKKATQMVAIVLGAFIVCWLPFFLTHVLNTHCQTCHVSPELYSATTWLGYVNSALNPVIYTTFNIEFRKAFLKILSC

Structure (SMILES) | AC50 [1] [µM] | AC50 [2] [µM] | AC50 (D(3) dopamine receptor) [µM] | AC50 [3] [µM] | AC50 [4] [µM] | AC50 [5] [µM] | AC50 [6] [µM] | AC50 [7] [µM]
CN(CCCN1c2ccccc2CCc2ccccc21)CC(=O)c1ccc(Cl)cc1 [LOFEPRAMINE] | 0.022 | > 30 | 3 | 4.8 | 25 | 4 | > 30 | –
CCC(Cc1c(I)cc(I)c(N)c1I)C(=O)O (configuration not stated) [IOPANOIC ACID] | – | – | – | – | – | – | – | 14.5
CCC1(c2cccc(O)c2)CCCCN(C)C1 (configuration not stated) [MEPTAZINOL] | – | – | – | – | – | – | – | > 30
CCCC1C(=O)N2C(N(C)C)=Nc3ccc(C)cc3N2C1=O (configuration not stated) [APAZONE] | – | – | – | – | – | – | – | > 30
CN(C)CCCN1c2ccccc2Sc2ccccc21 [PROMAZINE] | – | > 10 | 0.075 | 1.99 | > 10 | – | > 10 | –
O=C1NCC2(CCN(CCc3ccccc3)CC2)O1 [FENSPIRIDE] | – | – | – | – | – | – | – | > 30
NS(=O)(=O)c1cc(Cl)c(Cl)c(S(N)(=O)=O)c1 [DICHLORPHENAMIDE] | > 10 | > 10 | > 30 | > 10 | > 10 | > 10 | > 10 | –
NCc1ccccc1CC(=O)N[C@@H]1C(=O)N2C(C(=O)O)=C(CSc3nnnn3CC(=O)O)CS[C@H]12 [CEFORANIDE] | – | – | – | – | – | – | – | > 10
Nc1ccc(C(=O)O)cc1 [AMINOBENZOIC ACID] | – | – | – | – | – | – | – | > 30
CN(C/C=C/c1ccccc1)Cc1cccc2ccccc12 [NAFTIFINE] | 11.1 | > 10 | > 30 | 10.6 | > 10 | > 10 | > 10 | –
NS(=O)(=O)c1cc2c(cc1Cl)NC(CC1CCCC1)NS2(=O)=O (configuration not stated) [CYCLOPENTHIAZIDE] | – | – | > 30 | > 30 | > 30 | 17 | > 30 | –
CC(=O)N(CC(O)CO)c1c(I)c(C(=O)NCC(O)CO)c(I)c(C(=O)NCC(O)CO)c1I (configuration not stated) [IOHEXOL] | > 30 | > 10 | > 30 | > 10 | > 10 | > 10 | > 10 | –
CCCCN(CCCC)CCCOC(=O)c1ccc(N)cc1 [BUTACAINE] | – | – | – | – | – | – | – | > 30
N[C@@H](CSCC(=O)O)C(=O)O [CARBOCYSTEINE] | > 30 | > 30 | > 30 | > 30 | > 30 | > 30 | > 30 | –
CC/C=C\C/C=C\C/C=C\C/C=C\C/C=C\CCCC(=O)O [ICOSAPENT] | – | – | – | – | – | – | – | > 30
O=P(O)(O)C(O)(Cc1cccnc1)P(=O)(O)O [RISEDRONIC ACID] | > 30 | > 30 | > 30 | > 30 | > 30 | – | > 30 | –
C=C1C[C@@H]2[C@H](CC[C@]3(C)C(=O)CC[C@@H]23)[C@@]2(C)C=CC(=O)C=C12 [EXEMESTANE] | > 30 | > 10 | > 30 | 2.41 | > 10 | > 10 | > 10 | –

Structure (SMILES) | AC50 [1] [µM] | AC50 [2] [µM] | AC50 (D(3) dopamine receptor) [µM] | AC50 [3] [µM] | AC50 [4] [µM] | AC50 [5] [µM] | AC50 [6] [µM] | AC50 [7] [µM]
Nc1ccc(/N=N/c2ccccc2)c(N)n1 [PHENAZOPYRIDINE] | – | > 30 | 3.1 | 3.3 | > 30 | 3.2 | – | –
CCC1C(C)=NN=C(c2ccc(OC)c(OC)c2)c2cc(OC)c(OC)cc21 (configuration not stated) [TOFISOPAM] | – | – | – | – | – | – | – | 25.3
COCC1=C(C(=O)OC(C)OC(=O)OC(C)C)N2C(=O)[C@@H](NC(=O)/C(=N\OC)c3csc(N)n3)[C@H]2SC1 (some centres not stated) [CEFPODOXIME PROXETIL] | – | > 30 | > 30 | > 30 | > 30 | > 30 | > 30 | –
CC(C(O)c1ccc(O)cc1)N1CCC(Cc2ccccc2)CC1 (configuration not stated) [IFENPRODIL] | 2.5 | > 30 | 1.2 | 1 | – | 0.44 | 1.3 | –
COc1ccc(-c2cc(=O)c3c(O)cc(O[C@@H]4O[C@H](CO[C@@H]5O[C@@H](C)[C@H](O)[C@@H](O)[C@H]5O)[C@@H](O)[C@H](O)[C@H]4O)cc3o2)cc1O [DIOSMIN] | – | – | – | – | – | – | – | > 30
CC(C)(N)Cc1ccc(Cl)cc1 [CHLORPHENTERMINE] | 13.7 | > 10 | > 30 | > 10 | > 10 | > 10 | > 10 | –
CO/N=C(\C(=O)N[C@@H]1C(=O)N2C(C(=O)OCOC(=O)C(C)(C)C)=C(C)CS[C@H]12)c1csc(N)n1 | – | – | > 30 | > 30 | > 30 | > 30 | > 30 | –
CC(=O)O[C@]1(C(C)=O)CC[C@H]2[C@@H]3C[C@H](C)C4=CC(=O)CC[C@]4(C)[C@H]3CC[C@@]21C [MEDROXYPROGESTERONE ACETATE] | > 30 | – | – | – | – | – | – | –
NS(=O)(=O)c1cc(-c2nnn[nH]2)c(NCc2cccs2)cc1Cl [AZOSEMIDE] | > 30 | > 30 | > 30 | > 30 | > 30 | > 30 | > 30 | –
O=C(Cn1ccnc1[N+](=O)[O-])NCc1ccccc1 [BENZNIDAZOLE] | > 30 | > 30 | > 30 | 21 | > 30 | > 30 | > 30 | –
O=C1CCC(N2C(=O)c3ccccc3C2=O)C(=O)N1 (configuration not stated) [THALIDOMIDE] | > 10 | > 10 | > 10 | > 10 | > 10 | – | > 10 | –
C[N+](C)(C)CC(=O)O [BETAINE] | > 30 | > 30 | > 30 | – | > 30 | > 30 | > 30 | –
CCCC(=O)N1CCCN(c2nc(N)c3cc(OC)c(OC)cc3n2)CC1 [BUNAZOSIN] | > 30 | > 30 | 21 | > 30 | > 30 | 1.7 | > 30 | –
CC(=O)N[C@H]1[C@H]([C@H](O)[C@H](O)CO)OC(C(=O)O)=C[C@@H]1N=C(N)N [ZANAMIVIR] | > 30 | > 10 | > 30 | > 10 | > 10 | > 30 | > 30 | –
CN(C)[C@@H]1C(O)=C(C(N)=O)C(=O)[C@@]2(O)C(O)=C3C(=O)c4c(O)ccc(Cl)c4[C@@H](O)[C@H]3C[C@@H]12 [DEMECLOCYCLINE] | > 10 | > 10 | > 30 | > 10 | > 10 | > 10 | > 10 | –
C[N+](C)(C)CCOC(N)=O [CARBAMOYLCHOLINE] | > 10 | – | > 30 | > 10 | > 10 | – | 5.95 | –
CC(C)NCC1CCc2cc(CO)c([N+](=O)[O-])cc2N1 (configuration not stated) [OXAMNIQUINE] | > 30 | > 10 | 7.4 | 13.4 | > 10 | > 10 | > 30 | –
